# System: 299254-011-R-J1-PDC complex spheroids viability
# Assay: Anticancer human tumor 299254-011-R-J1-PDC patient-derived melanoma cell line growth inhibition [GQUAD]
# Conditions: for IC50: curve of first compound; for viability, T/C: stronger effect = lower value
# How it was run: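 Multi-cell-type spheroids of tumor cells with HUVEC and mesenchymal stem cells, treated with drug combinations. Concentrations descend in half-log steps from near clinical Cmax, or from 10 microM where Cmax is unknown; viability read-out.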
# [1] = second compound 0.0316 µM, first compound 0.0316 µM
# [2] = second compound 0.0316 µM, first compound 0.1 µM
# [3] = second compound 0.0316 µM, first compound 0.316 µM
# [4] = second compound 0.0316 µM, first compound 1 µM
# [5] = second compound 0.0316 µM, first compound 3.16 µM
# [6] = second compound 0.0316 µM, first compound 10 µM
# [7] = second compound 0.1 µM, first compound 0.0316 µM
# [8] = second compound 0.1 µM, first compound 0.1 µM
# [9] = second compound 0.1 µM, first compound 0.316 µM
# [10] = second compound 0.1 µM, first compound 1 µM
# [11] = second compound 0.1 µM, first compound 3.16 µM
# [12] = second compound 0.1 µM, first compound 10 µM
# [13] = second compound 0.316 µM, first compound 0.0316 µM
# [14] = second compound 0.316 µM, first compound 0.1 µM
# [15] = second compound 0.316 µM, first compound 0.316 µM
# [16] = second compound 0.316 µM, first compound 1 µM
# [17] = second compound 0.316 µM, first compound 3.16 µM
# [18] = second compound 0.316 µM, first compound 10 µM
# [19] = second compound 1 µM, first compound 0.0316 µM
# [20] = second compound 1 µM, first compound 0.1 µM
# [21] = second compound 1 µM, first compound 0.316 µM
# [22] = second compound 1 µM, first compound 1 µM
# [23] = second compound 1 µM, first compound 3.16 µM
# [24] = second compound 1 µM, first compound 10 µM
# [25] = second compound 3.16 µM, first compound 0.0316 µM
# [26] = second compound 3.16 µM, first compound 0.1 µM
# [27] = second compound 3.16 µM, first compound 0.316 µM
# [28] = second compound 3.16 µM, first compound 1 µM
# [29] = second compound 3.16 µM, first compound 3.16 µM
# [30] = second compound 3.16 µM, first compound 10 µM
# [31] = second compound 10 µM, first compound 0.0316 µM
# [32] = second compound 10 µM, first compound 0.1 µM
# [33] = second compound 10 µM, first compound 0.316 µM
# [34] = second compound 10 µM, first compound 1 µM
# [35] = second compound 10 µM, first compound 3.16 µM
# [36] = second compound 10 µM, first compound 10 µM
# 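Further: spheroids exposed to the agents for seven days before readout.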
# 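Wherever viability, T/C is given: percent viability relative to DMSO vehicle control wells = 100%.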
smiles,measurement,setting,value
COc1ncnc(C2CC2)c1-c1ncc2cnn(Cc3ccc(-c4nc(C(F)(F)F)cn4C(C)C)cc3)c2n1 + Cc1cnc(CNC(=O)c2c(=O)c3ccc(N4CCCN(C)CC4)nc3n3c2sc2ccccc23)cn1,IC50,second compound 0.0316 µM,> 10 µM
same,IC50,second compound 0.1 µM,> 10 µM
same,IC50,second compound 0.316 µM,> 10 µM
same,IC50,second compound 1 µM,> 10 µM
same,IC50,second compound 3.16 µM,> 10 µM
same,IC50,second compound 10 µM,3.44 µM
same,"viability, T/C",[1],92.3%
same,"viability, T/C",[2],98.2%
same,"viability, T/C",[3],84.8%
same,"viability, T/C",[4],88.6%
same,"viability, T/C",[5],110%
same,"viability, T/C",[6],126%
same,"viability, T/C",[7],113%
same,"viability, T/C",[8],97.9%
same,"viability, T/C",[9],81.5%
same,"viability, T/C",[10],97.8%
same,"viability, T/C",[11],91.9%
same,"viability, T/C",[12],108%
same,"viability, T/C",[13],87.3%
same,"viability, T/C",[14],88.9%
same,"viability, T/C",[15],120%
same,"viability, T/C",[16],101%
same,"viability, T/C",[17],93.2%
same,"viability, T/C",[18],97.8%
same,"viability, T/C",[19],68.7%
same,"viability, T/C",[20],102%
same,"viability, T/C",[21],90.1%
same,"viability, T/C",[22],88.1%
same,"viability, T/C",[23],102%
same,"viability, T/C",[24],76.8%
same,"viability, T/C",[25],87.4%
same,"viability, T/C",[26],69.8%
same,"viability, T/C",[27],76.4%
same,"viability, T/C",[28],70.9%
same,"viability, T/C",[29],77.3%
same,"viability, T/C",[30],79%
same,"viability, T/C",[31],38.5%
same,"viability, T/C",[32],24.7%
same,"viability, T/C",[33],68%
same,"viability, T/C",[34],77.7%
same,"viability, T/C",[35],63.6%
same,"viability, T/C",[36],0.43%
C=CC(=O)N1CCN(c2nc(=O)n(-c3c(C)ccnc3C(C)C)c3nc(-c4c(O)cccc4F)c(F)cc23)C(C)C1 (centres undefined) + Cc1cnc(CNC(=O)c2c(=O)c3ccc(N4CCCN(C)CC4)nc3n3c2sc2ccccc23)cn1,IC50,second compound 0.0316 µM,> 10 µM
same,IC50,second compound 0.1 µM,> 10 µM
same,IC50,second compound 0.316 µM,> 10 µM
same,IC50,second compound 1 µM,> 10 µM
same,IC50,second compound 3.16 µM,> 10 µM
same,IC50,second compound 10 µM,< 0.0316 µM
same,"viability, T/C",[1],73.3%
same,"viability, T/C",[2],71.1%
same,"viability, T/C",[3],69.3%
same,"viability, T/C",[4],58.3%
same,"viability, T/C",[5],59.4%
same,"viability, T/C",[6],76.8%
same,"viability, T/C",[7],67.8%
same,"viability, T/C",[8],74.9%
same,"viability, T/C",[9],64.1%
same,"viability, T/C",[10],57.6%
same,"viability, T/C",[11],60.7%
same,"viability, T/C",[12],78.2%
same,"viability, T/C",[13],93%
same,"viability, T/C",[14],72.9%
same,"viability, T/C",[15],60.8%
same,"viability, T/C",[16],67.4%
same,"viability, T/C",[17],65.1%
same,"viability, T/C",[18],70.3%
same,"viability, T/C",[19],73.8%
same,"viability, T/C",[20],65.3%
same,"viability, T/C",[21],65.2%
same,"viability, T/C",[22],67.3%
same,"viability, T/C",[23],83.7%
same,"viability, T/C",[24],61.2%
same,"viability, T/C",[25],76.3%
same,"viability, T/C",[26],78.9%
same,"viability, T/C",[27],63.5%
same,"viability, T/C",[28],69.8%
same,"viability, T/C",[29],74.6%
same,"viability, T/C",[30],52.9%
same,"viability, T/C",[31],0.4%
same,"viability, T/C",[32],0.46%
same,"viability, T/C",[33],8.66%
same,"viability, T/C",[34],0.41%
same,"viability, T/C",[35],0.41%
same,"viability, T/C",[36],0.36%
